Experimental data published in patent US10160831B2, “Astaxanthin based polymer and uses thereof” (SHENKAR COLLEGE OF ENGINEERING AND DESIGN, priority 2014, dated 2018).

How the values were obtained:
S. epidermidis 1457 = experiment: Bacterial growth on coated 96 well plates, optical density over 24 h; type: cell-based; conditions: coated wells, 37° C., FIG. 12A
Experimental: The potential antibacterial properties of polymer based ATX samples were tested against Staphylococcus aureus MRSA252, S. aureus MSSA476 and S. epidermidis 1457. Using solvent casting method [J. Ghosh et al., Polymer, vol. 52, pp. […]], 96 well plates were coated with the following samples—ATX only, ATX+sebacic acid (SA), ATX+Hexadecanoic acid (HA) and ATX+sebacic acid+2% polyethylene glycol (PEG). Each sample coated 3 wells per row and the last row was left blank as a control.
3 ml Trypticase Soy Broth was inoculated with a colony from an overnight plate. Pre-cultures were grown at 37° C. with shaking to mid-exponential phase (2-3 h), and then used to inoculate fresh TSB to a starting OD600 of 0.01. 200 μl aliquots of this suspension were then inoculated into wells of one full row of the test plate. The plate was then incubated in a FLUOstar OPTIMA microplate reader at 37° C., and the optical density of each well measured every hour over a 24 h period. […]
Optical density was measured as absorbance at 570 nm using a FLUOstar OPTIMA microplate reader and biofilm positive defined as OD570 above 1. […] Data was analyzed using unpaired t-tests or one-way ANOVA, and the level of significance set at p<0.05. The ability of the bacteria to form a biofilm in the presence of the ATX samples was determined after culturing for 24 h using a semi-quantitative biofilm assay.

[1] = tested on: S. aureus and S. epidermidis isolates; experiment: Semi-quantitative biofilm assay (crystal violet, OD570) after culturing for 24 h; type: cell-based; conditions: 24 h culture, OD570, FIG. 12B, p≤0.005
Experimental: 3 ml Trypticase Soy Broth was inoculated with a colony from an overnight plate. Pre-cultures were grown at 37° C. with shaking to mid-exponential phase (2-3 h), and then used to inoculate fresh TSB to a starting OD600 of 0.01. 200 μl aliquots of this suspension were then inoculated into wells of one full row of the test plate. The plate was then incubated in a FLUOstar OPTIMA microplate reader at 37° C., and the optical density of each well measured every hour over a 24 h period. After 24 h the suspension in each plate was removed. The plate itself was washed three times with phosphate buffered saline, pH 7.4 (PBS), air dried and stained with 150 μl crystal violet solution. The dye bound to any attached cells was solubilized by addition of 150 μl of 95% ethanol. Optical density was measured as absorbance at 570 nm using a FLUOstar OPTIMA microplate reader and biofilm positive defined as OD570 above 1. All S. aureus and S. epidermidis isolates were tested in triplicate in three independent experiments. Each plate also consisted of negative controls (wells without bacterial inoculation). Data was analyzed using unpaired t-tests or one-way ANOVA, and the level of significance set at p<0.05. The ability of the bacteria to form a biofilm in the presence of the ATX samples was determined after culturing for 24 h using a semi-quantitative biofilm assay.

CC1=C(/C=C/C(C)=C/C=C/C(C)=C/C=C/C=C(C)/C=C/C=C(C)/C=C/C2=C(C)C(=O)[C@@H](O)CC2(C)C)C(C)(C)C[C@H](O)C1=O [ATX, 3,3′-dihydroxy-β,βcarotene-4,4′-dione]
effect on growth of the bacteria (optical density) (S. epidermidis 1457): significant effect on inhibiting the growth | biofilm formation on coated surface vs control [1]: inhibited the bacteria from forming biofilm
